In publication PMC4165891, “A Cell-Based High-Throughput Screen for Novel Chemical Inducers of Fetal Hemoglobin for Treatment of Hemoglobinopathies” (PLoS ONE, 2014):

How the values were obtained:
[1] = tested on: γ-globin (HbF)-expressing F cells; assay: FACS analysis of HbF (F cells) in CID-dependent wild-type β-YAC BMCs; format: cell-based, mouse; conditions: 48 hours; NaB 2 mM; #7 50 µM; #42 15 µM; #87 100 µM; #125 30 µM; #157 100 µM; #208 25 µM; untreated 0.7%
Excerpt: (§1) Human erythroid progenitors were generated in vitro from adult CD34^+ stem cells (STEMCELL Technologies, Inc., Vancouver, Canada) using a 2-stage culture system that achieves terminal erythroid differentiation. Standard, but variant, methods for quantitative reverse transcription-PCR (qRT-PCR) and flow-activated cell sorting (FACS) were employed for the two cell types as detailed in File S1. ELISA was used to measure HbF in CID-dependent wild-type β-YAC BMCs as described in the supplement.
Flow-activated cell sorting (FACS). Detection of HbF in CID-dependent wild-type β-YAC BMCs was performed by flow cytometric analysis. Briefly, 3 x 10^6 cells were cultured for 48 hours with or without treatment. Cells were washed in PBS and fixed in 1 ml 4% fresh paraformaldehyde (Sigma Aldrich, Saint Louis, MO). The cells were centrifuged, the supernatant discarded, and the pellets were resuspended in 1 ml ice cold acetone:methanol (4:1) for 1 minute. Cells were washed twice in ice-cold PBS/0.1% BSA and resuspended in 100 μl PBS/0.1% BSA/0.01% Tween 20 (PBT). One μg sheep anti-human HbF FITC-conjugated antibody (A80-136F, Bethyl Laboratories, Montgomery, TX) in 100 μl PBT was added to the cell suspension and incubated for 40 minutes at room temperature. […] Cells were analyzed using a BD LSRII Flow Cytometer (BD Biosciences, San Jose, CA) with a 530/30 nm (FITC/GFP) emission filter . […]

[2] = tested on: γ-globin promoter-firefly luciferase; assay: γ-globin promoter-firefly luciferase induction in CID-dependent dual luc β-YAC BMCs (HTS and dose-response reconfirmation); format: cell-based, mouse; conditions: for fold induction of firefly luciferase by positive control: 2 mM, 24 hours, over DMSO treated controls, primary HTS plates; for responsiveness of dual luc β-YAC BMCs to known γ-globin inducers: data not shown
Experimental: For HTS experiments, the dual luc β-YAC BMCs were seeded into 384-well plates (Greiner Bio-One, Monroe, NC) at a density of 10,000 cells/30 µl/well by Wellmate bulk dispenser (ThermoScientific Inc., Waltham, MA) in complete media containing the CID, CL-COB-II-293 (synthesized by the University of Kansas COBRE CCET Core C Synthesis Lab, commonly called AP20187). The CID-dependent dual luc β-YAC BMCs were responsive to known γ-globin inducers including valproic acid, sodium butyrate, valeric acid and hydroxyurea (data not shown). Sodium butyrate (2 mM) was selected as the positive control for screening, as a consistent 5–6 fold increase in firefly luciferase activity was obtained in four independent experiments with four different passage numbers. Since both the cell viability and luciferase induction was unaffected at DMSO concentrations below 0.5%, the compound libraries were screened at 10 µM concentration in 0.35% DMSO. Compounds were transferred acoustically using a Labcyte Echo 550 dispenser (Labcyte Inc., Sunnyvale, CA). Based on previous optimizations, 10,000 cells/well in IMDM containing CL-COB-II-293 (100 nM) were added to the wells of 384-well assay plates. The negative (n = 16, DMSO) and positive (n = 16, sodium butyrate, 2 mM) controls were added to the first two columns of each plate to assure uniformity across plates and screening batches. The cells were exposed to compounds for 24 hours at 37°C, 5% CO2 in a 95% humidified incubator. After 24 hours incubation, Steady Glo luciferase detection reagent (Promega, Madison, WI) was used for cell lysis and generation of a luminescent signal, proportional to γ-globin promoter driven firefly luciferase reporter expression. The luminescence intensities were read 30 minutes later on a Tecan Safire2 microplate reader (Tecan, Männedorf, Switzerland). The luminescence values were used for calculating fold-induction of luciferase over DMSO treated controls. The controls were used to calculate a Z′ factor value for each plate, a measure of screening assay quality.
The active compounds from the primary screen were cherry-picked from mother plates and retested for firefly luciferase induction in an eight concentration dose-response assay (two fold dilution starting at 30 µM). The fold-induction values from dose-response curves were used for preliminary scaffold analysis and clustering using the Tripos Selector program and analyzed using the Jarvis Patrick routine, using default parameters [The Tripos Associates (Cetara), St. Louis, MO]. From each preliminary cluster, the largest conserved substructure present in at least half of the cluster members was identified.
Some of the primary screen active compounds were repurchased and tested for activity in cell-based assays using the primary screening reporter cells in a ten concentration dose-response. Both firefly luciferase induction (γ-globin promoter activation using the One-Glo luciferase detection system; Promega, Madison, WI), and Renilla luciferase induction (β-globin induction the using Renilla-Glo Luciferase detection system; Promega, Madison, WI), were measured for specificity of compound activity. The cytotoxicity of the compounds was measured after 24 hours in the same cells using Cell-Titer Glo reagent (Promega, Madison, WI). The compounds were also tested in a biochemical screen for any inhibition to purified firefly luciferase enzyme (15 nM).

[3] = tested on: γ-globin to β-globin (γ/β) ratio; assay: qRT-PCR γ-globin/β-globin mRNA ratio in human primary erythroid progenitors; format: cell-based; conditions: added day 8 for 48 hours; NaB 2 mM; #7 50 µM; #42 15 µM; #87 100 µM; #208 25 µM (Figure 6 legend)
Excerpt: as §1
Human primary erythroid cell culture. Human erythroid progenitors were generated in vitro from adult CD34^+ stem cells (STEMCELL Technologies, Inc., Vancouver, Canada) using a 2-stage culture system that achieves terminal erythroid differentiation. […] Cell viability was monitored by trypan blue (0.4%) exclusion. […]
Quantitative reverse transcription-PCR (qRT-PCR). The mRNA levels of γ-globin, β-globin, and glyceraldehyde-3-phosphate dehydrogenase (GAPDH) were measured as previously published, [10]. […] The γ-globin, β-globin, and GAPDH mRNA levels were quantitated by Sybergreen qPCR using an iCycler iQ instrument (BioRad, Hercules, CA); standard curves were generated using a Topo7-based plasmid carrying the γ-globin, β-globin, or GAPDH cDNAs (Topo7-γ-globin, Topo7-β-globin, or Topo7-GAPDH, respectively).

HbF-positive cells = assay: FACS analysis of HbF-positive cells in human primary erythroid progenitors; format: cell-based; conditions: 48 hours
Excerpt: as §1
Human primary erythroid cell culture. Human erythroid progenitors were generated in vitro from adult CD34^+ stem cells (STEMCELL Technologies, Inc., Vancouver, Canada) using a 2-stage culture system that achieves terminal erythroid differentiation. Briefly, CD34^+ stem cells (500,000) were grown in First medium consisting of IMDM containing human AB serum, Interleukin-3 (IL-3,10 ng/ml), stem cell factor (SCF, 10 ng/ml) and erythropoietin (EPO, 2 IU/ml). On day 7 the erythroblasts were placed in Second medium consisting of 2 IU/mL erythropoietin for the duration of culture. […] Cell viability was monitored by trypan blue (0.4%) exclusion. […]
Flow-activated cell sorting (FACS). […] The labeled cells were analyzed using a Becton-Dickson LSR-II flow cytometer (BD Biosciences, San Jose, CA). […]

[4] = tested on: human γ-globin gene expression; assay: qRT-PCR of γ-globin mRNA in CID-dependent wild-type β-YAC BMCs; format: cell-based, mouse; conditions: 48 hours; NaB 2 mM; #7 50 µM; #42 15 µM; #87 100 µM; #125 30 µM; #157 100 µM; #208 25 µM
Excerpt: as §1
Quantitative reverse transcription-PCR (qRT-PCR). In each experiment, treated and non-treated samples were analyzed in duplicate, 48 hours post-treatment, using SYBR Green dye in a CFX96 instrument (Bio-Rad, Hercules, CA). Expression of γ- and β-globin was calculated using relative quantification, as previously described, [7], using samples from β-YAC transgenic mice as controls. PCR primer sequences utilized for expression studies were: Hu-γ1, 5’-[…]-3’; Hu-γ2, 5’-[…]-3’; β-globin FWD, 5’-[…]-3’; β-globin REV, 5’-[…]-3’; Mo-Gapdh FWD, 5’-[…]-3’; Mo-Gapdh REV, 5’-[…]-3’; Mo-α-globin FWD, 5’-[…]-3’; Mo-α-globin REV, 5’-[…]-3’. Murine Gapdh and α-globin gene expression were used as internal controls for the human β-like globin gene expression. Mean and standard error of the mean were calculated. The Student’s t-test was used to determine statistical significance at P < 0.05 and P < 0.01.

Row | SMILES | % F cells (FACS, gate P3) [1] | fold induction of firefly luciferase by positive control [2] | fold induction of firefly luciferase by positive control ([2]; listed as sodium butyrate) | responsiveness of dual luc β-YAC BMCs to known γ-globin inducers [2] | γ-globin to β-globin (γ/β) mRNA ratio fold increase compared to DMSO [3] | fold increase in % HbF-positive cells (HbF-positive cells) | γ-globin expression fold induction (qPCR) [4]
1 | CCCC(=O)[O-].[Na+] [Sodium butyrate] | 15.9% | 5–6 fold | 6.3±0.7 fold | responsive | 1.8 fold | 7 fold | 9.9 fold
2 | NC(=O)NO [hydroxyurea] | – | – | – | responsive | – | – | –
3 | CCCCC(=O)O [valeric acid] | – | – | – | responsive | – | – | –
4 | CCCC(CCC)C(=O)O [valproic acid] | – | – | – | responsive | – | – | –
